# Reference: US8927588B2, “Imidazole carbonyl compound” (Daiichi Sankyo Company, Limited, priority 2007, dated 2015)
# Where two headings read alike, the source gives them in different places.
# Tests used:
# [1] = molecular target: ParE of Haemophilus influenzae (Haemophilus influenzae, UniProt P43703); assay: ATP hydrolysis inhibition assay (pyruvate kinase/lactate dehydrogenase coupled), ParE of Haemophilus influenzae; type: biochemical
# Experimental: The ATP hydrolysis activity of GyrB and ParE was determined by correlating it with ADP production and NADH oxidation mediated by pyruvate kinase/lactate dehydrogenase. This method has been previously reported (Tamura, J. K. and Gellert, M. 1990, J. Biol. Chem. 265:21342-21349).
# The ATP hydrolysis assay was carried out in a buffer solution containing final concentrations of 100 mM Tris-HCl (pH 7.5), 150 mM KCl, 1.5 mM MgCl2, 0.4 mM nicotinamide adenine dinucleotide (NADH), 2.5 mM phosphoenolpyruvate, 1 mM DTT, 15 U/ml pyruvate kinase, 10.5 U/ml lactate dehydrogenase and 1 mU/ml enzyme (GyrB or ParE of Streptococcus pneumoniae or Haemophilus influenzae) (provided that the concentration of KCl was 25 mM and the concentration of MgCl2 was 10 mM in the case of ParE of Haemophilus influenzae). A solution of the test compound serially four-fold diluted in DMSO:MeOH (7:3) was added at a final concentration of 5% (v/v). […] ATP was added at a final concentration of 1 mM; after mixing, the absorbance at 340 nm (amount of NADH) was determined (provided that the final ATP concentration was 0.3 mM in the case of ParE of Haemophilus influenzae). The reaction solution was incubated at 30° C. for two hours, and then the absorbance at 340 nm was determined. The ATP hydrolysis inhibition rate (%) was calculated from the difference in absorbance before and after the incubation (amount of NADH oxidized). […]
# HeLa cell proliferation = assay: Cytotoxicity test, HeLa cell proliferation (MTS-PMS); type: cell-based; conditions: human, HeLa cells, 48 hours incubation, read-out: IC50 (cytotoxicity, proliferation inhibition)
# Experimental: 50 μL of a HeLa cell solution containing 80000 cells/mL was inoculated into each well of a 96-well microplate, and the mixture was incubated at 37° C. in a 5% carbon dioxide incubator for 24 hours. Thereafter, a medium containing the test compound serially four-fold diluted was added at 50 μL to each well, and the mixture was incubated at 37° C. in a 5% carbon dioxide incubator for 48 hours. As a control with an inhibition rate of 0%, a well not containing the test compound was also prepared. Following washing with phosphate buffered saline, a MTS [3-(4,5-dimethylthiazol-2-yl)-5-(3-carboxymethoxyphenyl)-2-(4-sulphophenyl)-2H-tetrazolium, inner salt]-PMS (phenazine methosulfate) coloring reagent solution was added, and the mixture was allowed to stand at 37° C. in a 5% carbon dioxide incubator for 1.5 hours. Thereafter, the absorbance at 490 nm was determined. The 50% inhibition concentration (IC50) was calculated from the proliferation inhibition rate (%) in the presence of four different concentrations of the test compound.
# [2] = Solubility in water (JP1 fluid / JP2 fluid); type: physicochemical; conditions: thermodynamic from solid, room temperature
# Haemophilus influenzae = assay: Sensitivity of bacteria, broth microdilution method (MIC); type: cell-based; conditions: medium obtained by mixing hemophilus test medium with human serum at a ratio of 1:1
# Experimental: The antibacterial activity of the compounds of the present invention was tested by sensitivity tests by the broth microdilution method. The assay was carried out according to the latest CLSI guidelines for managing the procedures of sensitivity tests: “M7-A7 Methods for Dilution Antimicrobial Susceptibility Tests for Bacteria That Grow Aerobically; Approved Standard—Seventh Edition (2006)”. Test strains were grown on appropriate agar plates overnight. A broth containing the test compound serially two-fold diluted was dispensed at 100 μL to each well of a 96-well microplate. As a growth control, a well with a broth not containing the test compound was also prepared. Colonies grown on the plates were suspended in saline, adjusted to 0.5 McFarland (OD625=0.08 to 0.10) using a colorimeter, and then diluted ten-fold with saline. The bacterial suspension was inoculated at 4 μL into each well of the microplate using a bacterial suspension inoculation apparatus. The inoculated microplate was incubated at 35° C. overnight (about 20 hours). The growth condition was observed by the naked eye, and the minimum concentration to inhibit bacterial proliferation was defined as a minimum inhibitory concentration (MIC).
# ParE of Haemophilus influenzae, sequence (P43703 whole entry): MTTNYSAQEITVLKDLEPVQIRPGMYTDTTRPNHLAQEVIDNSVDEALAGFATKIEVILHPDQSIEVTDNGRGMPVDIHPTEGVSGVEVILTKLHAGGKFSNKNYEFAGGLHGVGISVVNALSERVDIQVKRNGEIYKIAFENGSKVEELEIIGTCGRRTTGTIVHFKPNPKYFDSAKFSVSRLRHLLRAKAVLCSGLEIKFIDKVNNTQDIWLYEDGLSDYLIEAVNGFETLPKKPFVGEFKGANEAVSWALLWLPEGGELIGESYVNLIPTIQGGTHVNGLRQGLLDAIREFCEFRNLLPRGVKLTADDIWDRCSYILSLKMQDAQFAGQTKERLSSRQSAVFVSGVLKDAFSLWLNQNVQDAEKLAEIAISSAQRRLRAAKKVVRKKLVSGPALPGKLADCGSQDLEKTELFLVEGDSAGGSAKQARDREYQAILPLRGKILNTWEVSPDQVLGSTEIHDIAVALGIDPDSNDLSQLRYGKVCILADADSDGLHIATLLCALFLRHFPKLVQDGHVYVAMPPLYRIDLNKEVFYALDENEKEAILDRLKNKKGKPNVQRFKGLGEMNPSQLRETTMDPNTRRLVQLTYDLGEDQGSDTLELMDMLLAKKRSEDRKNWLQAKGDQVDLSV
smiles,measurement,setting,value
"CO[C@H]1CN(c2nc3cccc(C(=O)O)c3s2)CC[C@H]1NC(=O)c1nc(Cl)c(C)[nH]1 (racemic) [Example 8, cis(±)-2-(4-{[(4-Chloro-5-methyl-1H-imidazol-2-yl)carbonyl]amino}-3-methoxypiperidin-1-yl)-1,3-benzothiazole-7-carboxylic acid]",IC50,[1],131 nM
same,IC50 at 48 h,HeLa cell proliferation,> 200 µg/mL
same,solubility,"[2]; pH 1.2, simulated gastric fluid, 1st fluid for the disintegration test of the Japanese Pharmacopoeia, read-out: solubility in JP1 fluid",100 µg/mL
same,solubility,"[2]; pH 6.8, aqueous buffer, 2nd fluid for the disintegration test of the Japanese Pharmacopoeia, read-out: solubility in JP2 fluid",720 µg/mL
same,MIC,Haemophilus influenzae,4 µg/mL
